Experimental findings from patent publication US20050011012A1, “Multifunctional antimicrobial dyes” (Regents of the University of California, priority 2003, published 2005) are described below.

One data set concerns Escherichia coli. Particulars: pH 3; for Antimicrobial efficacy of treated fabric, E. coli: Orlon treated with 1 mMol/L compound, 10^5~10^6 CFU/mL; for Reduction percentage of E. coli: Orlon treated with 1 mMol/L dye. The protocol:
(§1) The dyeing of acrylic fabrics follows a traditional exhaustion dyeing procedure (Munn, The dyeing of synthetic-polymer and acetate fibres, England: Dyers Company Publications Trust (1979)). Dye solutions were prepared with the QAS-dyes of the present invention, sodium sulfate (2 g/L), and Triton X-100 (0.05%). The pH of the dyeing bath was adjusted to 3 by buffer solutions containing sulfuric acid, sodium acetate, and acetic acid. The bath ratio was kept at 1:50. The Orlon fabrics were immersed into the dyeing bath at initial dyeing temperatures for a certain period of time, and then fixed at 100° C. for another period of time to elevate the interactions between the fabrics and the QAS-dyes.
(§2) The antimicrobial activities of the treated Orlon fabrics were evaluated against Escherichia coli (E. coli, Gram-negative) and Staphylococcus aureus (S. aureus, Gram-positive) according to AATCC test method 100-1999. In this method, disposable petri dishes containing fabric swatches weighing about 1 g were challenged with 1.0±0.1 mL of bacteria inoculum. After a certain period of contact time, the challenged fabric swatches were transferred to 250 mL containers with 100 mL of sterilized water, and the resultant supernatant was diluted 10^1, 10^2, 10^3, and 10^4 times. Then, 100 μL of each dilution was placed onto nutrient agar and incubated at 37° C. for 18 hours. The same procedure was applied to an untreated Orlon fabric swatch as a control. Finally, viable bacteria colonies on the agar plate were counted, and the amount of bacterial reduction was calculated using Eq. (2): Reduction percentage(%)=(A-B)/A×100%, (2) where A represents the number of bacterial colonies in the control, and B represents the number of bacterial colonies in the treated Orlon fabrics.
(§3) The surface resistivity of the treated fabrics was measured by a portable surface resistivity/resistance meter purchase from Monroe Electronics, Inc (Model 272A). The visual color yields of the dyed fabrics were measured by GretagMacbeth™ Color-Eye® 7000A spectrophotometer. The visual color yields of the fabrics were expressed by K/S values, which were derived from the reflectance measurement. The treated fabric was washed in a Launder-Ometer® according to AATCC Test Method 61-2001 to evaluate the wash durability of the treated fabrics. In this method, one cycle of a Launder-Ometer wash is equivalent to five machine washes using a home laundry machine.

For the next data set, the system named is Staphylococcus aureus. The note with it: Orlon treated with 1 mMol/L compound, pH 3, 10^5~10^6 CFU/mL, contact time 6 hrs. The protocol: as §1, §2, §3
The conditions of data set [1]: for Relative hydrolytic stability among mono-QAS substituted dyes: acidic conditions, 100° C. As to the method:
Hydrolytic stability analysis: The dyes were dissolved in aqueous solutions at a concentration of 0.4-1 mMol/L, and the solutions were adjusted to various pH values by using sulfuric acid, acetic acid, sodium acetate, sodium bicarbonate, and/or sodium carbonate. The solutions were heated to the required temperatures. At different time intervals, solution samples were taken and measured by a HITACHI U-2000 spectrophotometer to obtain the UV-vis adsorption spectra. The results were compared with the spectra of original dye solutions to determine the stability of the dyes.
After hydrolysis, the precipitates formed in the dye solutions were filtered and thoroughly washed with deionized water. The resultant precipitates were recrystallized using acetone for NMR analysis. NMR spectra were recorded on a Varian Inova 400 spectrometer. The residual filtrate was extracted by chloroform, and the aqueous part was dried under vacuum at room temperature and analyzed by NMR.

The conditions of data set [2]: DSC, 10° C./min, nitrogen. On the technique in general: DSC measures the heat that a sample takes up or gives off during a temperature scan.
Description: Thermal stability analysis: Thermal analyses of the QAS-dyes shown in FIG. 2B were performed using a differential scanning calorimeter (DSC) (Shimadzu DSC-50) and a thermal gravimetric analyzer (TGA) (Shimadzu TGA-50). The dye samples were heated at 10° C./min. and nitrogen gas was chosen as the atmosphere.

Where two headings read alike, the source gives them in different places.

Turning to `CCCCCCCC[N+](C)(C)CC(=O)Nc1cccc2c1C(=O)c1ccccc1C2=O.[Cl-]` [m-8], the “Antimicrobial efficacy of treated fabric, E. coli” value (from here on “Antimicrobial efficacy … E. coli”) in the data set with Escherichia coli (0 washes, contact time 6 hrs) is 98.6%; with Escherichia coli (5 washes, contact time 6 hrs) it was 44.0%; in the data set on Escherichia coli (10 washes, contact time 6 hrs), 0%; in the data set on Escherichia coli (20 washes, contact time 6 hrs) it was 0%. Also, the “Antimicrobial efficacy of treated fabric, S. aureus” value (“Antimicrobial efficacy … S. aureus” for short) came to 92.4% in the data set with Staphylococcus aureus (0 washes), 37.5% in the data set with Staphylococcus aureus (5 washes), 0% in the data set on Staphylococcus aureus (10 washes) and 0% with Staphylococcus aureus (20 washes). In data set [1], the “Relative hydrolytic stability among mono-QAS substituted dyes” value is given as “lower stability”. Also, in data set [2], the “Temperature up to which no obvious changes are observed (dyes stable below)” value is “up to 190 °C”.
For `CCCCCCCCCCCC[N+](C)(C)CC(=O)Nc1cccc2c1C(=O)c1ccccc1C2=O.[Cl-]` [m-12], the “Antimicrobial efficacy … E. coli” value with Escherichia coli (0 washes, contact time 6 hrs) was 99.9%; in the data set on Escherichia coli (5 washes, contact time 6 hrs), 81.3%; with Escherichia coli (10 washes, contact time 6 hrs), 0%; with Escherichia coli (20 washes, contact time 6 hrs), 0%. For the same compound, the “Antimicrobial efficacy … S. aureus” value in the data set with Staphylococcus aureus (0 washes) was 99.9%; with Staphylococcus aureus (5 washes) it was 75.0%; in the data set on Staphylococcus aureus (10 washes), 0%; in the data set on Staphylococcus aureus (20 washes) it was 0%. For the same compound, the “Relative hydrolytic stability among mono-QAS substituted dyes” value in data set [1] was “lowest stability”. The “Temperature up to which no obvious changes are observed (dyes stable below)” value in data set [2] is “up to 190 °C”.
Take `CCCC[N+](C)(C)CC(=O)Nc1cccc2c1C(=O)c1ccccc1C2=O.[Cl-]` [m-4]: the “Antimicrobial efficacy … E. coli” value with Escherichia coli (0 washes, contact time 6 hrs) is listed as 95.7%; in the data set on Escherichia coli (5 washes, contact time 6 hrs), 44.0%; with Escherichia coli (10 washes, contact time 6 hrs), 0%; with Escherichia coli (20 washes, contact time 6 hrs) it was 0%. Moreover, the “Antimicrobial efficacy … S. aureus” value turned out to be 86.4% in the data set with Staphylococcus aureus (0 washes), 50.0% with Staphylococcus aureus (5 washes), 0% in the data set on Staphylococcus aureus (10 washes) and 0% in the data set with Staphylococcus aureus (20 washes). Moreover, the “Time the dye solution was stable (almost unchanged visible spectra)” value in data set [1] (0.4 mMol/L, pH 5, 100° C.) is listed as “about six”. Moreover, the “Temperature up to which no obvious changes are observed (dyes stable below)” value in data set [2] is “up to 190 °C”.
Regarding `CCCCCCCCCCCC[N+](C)(C)CC(=O)Nc1ccc(NC(=O)C[N+](C)(C)CCCCCCCCCCCC)c2c1C(=O)c1ccccc1C2=O.[Cl-].[Cl-]` [bi-12], the “Antimicrobial efficacy … E. coli” value turned out to be 99.9% with Escherichia coli (0 washes, contact time 6 hrs); 99.3% in the data set on Escherichia coli (5 washes, contact time 6 hrs); 60.0% with Escherichia coli (10 washes, contact time 6 hrs); 0% in the data set with Escherichia coli (20 washes, contact time 6 hrs). Besides, the “Reduction percentage of E. coli” value in the data set on Escherichia coli (E. coli 10^5~10^6 CFU/mL, contact time 3 hrs) is on record as 93.3%; in the data set on Escherichia coli (E. coli 10^5~10^6 CFU/mL, contact time 6 hrs) it was 99.9%; in the data set on Escherichia coli (E. coli 10^5~10^6 CFU/mL, contact time 9 hrs), 93.3%; in the data set with Escherichia coli (E. coli 10^5~10^6 CFU/mL, contact time 12 hrs), 66.7%; with Escherichia coli (E. coli 10^6~10^7 CFU/mL, contact time 3 hrs), 92.5%; in the data set with Escherichia coli (E. coli 10^6~10^7 CFU/mL, contact time 6 hrs), 95.8%. Further, the “Reduction percentage of E. coli” value with Escherichia coli (E. coli 10^6~10^7 CFU/mL, contact time 9 hrs) worked out at 83.3%; with Escherichia coli (E. coli 10^6~10^7 CFU/mL, contact time 12 hrs), 50%; in the data set with Escherichia coli (E. coli 10^7~10^8 CFU/mL, contact time 3 hrs) it was 86.7%; with Escherichia coli (E. coli 10^7~10^8 CFU/mL, contact time 6 hrs), 0%; in the data set with Escherichia coli (E. coli 10^7~10^8 CFU/mL, contact time 9 hrs), 0%; with Escherichia coli (E. coli 10^7~10^8 CFU/mL, contact time 12 hrs), 0%. The “Antimicrobial efficacy … S. aureus” value in the data set on Staphylococcus aureus (0 washes) is on record as 99.9%; in the data set with Staphylococcus aureus (5 washes), 81.8%; in the data set on Staphylococcus aureus (10 washes) it was 45.5%; in the data set with Staphylococcus aureus (20 washes) it was 0%.
Take `CCCCCCCC[N+](C)(C)CC(=O)Nc1ccc(NC(=O)C[N+](C)(C)CCCCCCCC)c2c1C(=O)c1ccccc1C2=O.[Cl-].[Cl-]` [bi-8]: the “Antimicrobial efficacy … E. coli” value with Escherichia coli (0 washes, contact time 6 hrs) came out at 98.6%; in the data set with Escherichia coli (5 washes, contact time 6 hrs) it was 50.0%; in the data set with Escherichia coli (10 washes, contact time 6 hrs), 46.7%; in the data set with Escherichia coli (20 washes, contact time 6 hrs), 0%. The “Antimicrobial efficacy … S. aureus” value in the data set with Staphylococcus aureus (0 washes) is recorded as 93.9%; in the data set on Staphylococcus aureus (5 washes), 50.0%; with Staphylococcus aureus (10 washes) it was 37.5%; in the data set with Staphylococcus aureus (20 washes) it was 0%.
As for `CCCC[N+](C)(C)CC(=O)Nc1ccc(NC(=O)C[N+](C)(C)CCCC)c2c1C(=O)c1ccccc1C2=O.[Cl-].[Cl-]` [bi-4], the “Antimicrobial efficacy … E. coli” value in the data set on Escherichia coli (0 washes, contact time 6 hrs) was found to be 97.1%; with Escherichia coli (5 washes, contact time 6 hrs), 37.5%; with Escherichia coli (10 washes, contact time 6 hrs) it was 0%; in the data set on Escherichia coli (20 washes, contact time 6 hrs), 0%. Besides, the “Antimicrobial efficacy … S. aureus” value amounted to 87.5% in the data set on Staphylococcus aureus (0 washes), 36.4% in the data set with Staphylococcus aureus (5 washes), 0% with Staphylococcus aureus (10 washes) and 0% in the data set with Staphylococcus aureus (20 washes).
